Results reported in patent EP3009422A1, “Photo-switchable sulfonylureas and their uses” (Ludwig-Maximilians-Universität München, priority 2014, dated 2016).

Legend:
mouse islets = assay: Calcium imaging (fMCI) of beta cell activity in intact mouse islets; type: cell-based; conditions: mouse islets
Experimental: Male and female CD1 and C57BL6 mice (8-20 weeks) were maintained in a specific pathogen-free facility under a 12h light-dark cycle with ad libitum access to water and food. Animals were euthanized using a schedule-1 method and pancreatic islets isolated by collagenase digestion. All procedures were regulated by the Home Office according to the Animals (Scientific Procedures) Act 1986 of the United Kingdom (PPL 70/7349), and study approval granted by the Animal Welfare and Ethical Review Body (AWERB) of Imperial College. No randomization was used for animal experimentation, since mice were only used as tissue donors.
Islets were loaded for 30-45 min in fluo2-AM (10 µM) or for 2-5 min with X-Rhod 1 (5 µM) diluted with a mixture of DMSO (0.01%, wt/vol) and pluronic acid (0.001%, wt/vol; all Invitrogen) in a bicarbonate buffer containing in mM: 120 NaCl, 4.8 KCl, 1.25 NaH2PO4, 24 NaHCO3, 2.5 CaCl2, 1.2 MgCl2 and 5 D-glucose. fMCI was performed using a Zeiss Axiovert M200 fitted with a Nipkow spinning-disk head (Yokogawa CSU-10) and a 10x/0.3NA objective adjusted for chromatic aberration (EC Plan-Neofluar, Zeiss). Pulsed excitation (frequency = 0.5 Hz; exposure = 263 ms) was delivered at 491 nm and emitted signals recorded at 500-550 nm with a back-illuminated 16-bit EM-CCD camera (ImageEM 9100-13; Hamamatsu). During recording, islets were maintained at 35-36 °C in the presence of 50 µM JB253 using a custom-manufactured perfusion and heating system (Digital Pixel). Drugs were introduced through the perfusion system at the indicated time points and concentrations. Violet light was delivered by a 405 ± 5 nm laser coupled to the side port of the microscope and configured to fill the back of the objective with light using an Optospot (Cairn Research). Blue light was delivered using 440 ± 5 nm and 491 ± 5 nm diode lasers controlled by a laser merge module (Spectral Applied Research) to allow simultaneous exposure and acquisition. For single islet targeting, a 473 ± 5 nm laser was coupled to a custom-manufactured dichroic array (Cairn Research), allowing user-directed steering of a collimated laser spot across the field of view. Signals were normalized using F/Fmin where F is fluorescence at a given timepoint and Fmin is minimum fluorescence.
Data distribution was determined using the D'Agostino omnibus test. Non-multifactorial pairwise comparisons were made using either the Student's t-test. Interactions between multiple treatments were assessed using one-way ANOVA followed by pairwise comparisons using Bonferroni's post-hoc test. Effect sizes in islets/cells are usually sufficiently large that multiple animals/independent replication is a more important determinant of power in studies requiring statistical comparison. Non-linear regression was used to calculate the EC50 of normalized and log-transformed concentration-response curves. For [3H]-glibenclamide displacement assays, data points were fitted to the Hill equation before calculation of the halfmax value. In all cases, analysis was performed using Graphpad Prism (Graphpad Software) and IgorPro, and experimental numbers reported as independent biological replicates. No animals or data were excluded from the analysis and results were considered significant at P<0.05.

Epac2A = assay: Epac2-camps FRET imaging in HEK293t cells; type: cell-based; conditions: HEK293t cells expressing full length Epac2-camps; JB253 as cis-JB253 (excitation 440 nm)
Experimental: For EPAC2 imaging, HEK293t were transfected with the full length construct for […] containing the cAMP and sulfonylurea binding domains (obtained from Prof. […] Excitation was delivered at 440 nm and emitted signals captured using […] filters. FRET was calculated as the ratio of Cerulean (CFP):Venus (YFP) fluorescence. Signals were normalized using R/R0 where R is the ratio at a given timepoint and R0 is the minimum ratio.

islets = assay: Cytotoxicity assay (calcein-AM / propidium iodide) in islets; type: cell-based; conditions: 1 hr incubation, n = 28 islets from four animals
Experimental: Islets were incubated with either DMSO or JB253 for 1 hr before staining with 3 µM of calcein-AM (live) and 2.5 µM of propidium iodide (dead). Absorbance/emission was detected at 491/525 nm and 561/620 nm for calcein and PI, respectively. The area of dead:live cells was calculated as a unitary ratio and the observer blinded to treatment identity.

[1] = Water solubility on dilution from DMSO stock; type: physicochemical; conditions: kinetic from dmso stock, diluted from a 50 mM stock solution in DMSO

Structure (SMILES): CCN(CC)c1ccc(/N=N/c2ccc(S(=O)(=O)NC(=O)NC3CCCCC3)cc2)cc1 [JB253, (E)-N-(cyclohexylcarbamoyl)-4-((4-(diethylamino)phenyl)diazenyl)benzenesulfonamide]
- fluo-2-loaded population responding to illumination with synchronous Ca^2+ rises (mouse islets; 50 µM JB253, 405 nm laser, n = 10 recordings): 54%
- responsive X-Rhod-1-loaded cells (mouse islets; 50 µM JB253, 405 nm, n = 3 recordings): 63%
- stimulation of [Ca^2+]i (mouse islets; concentration-response, dark): largely ineffective
- concentration-response curve for glimepiride in the presence of trans-JB253 (mouse islets; saturating concentration (100 µM) of trans-JB253, dark): right-shifted
- ΔR/R0 (decrease in FRET) (Epac2A): 0.064 AU
- cytotoxicity to islets (necrosis indices, cell death versus DMSO-alone) (islets): did not appear to be cytotoxic
- solubility [1]: ≥ 100 µM
